# Data reported in patent publication US12350294B2, “Medium comprising serum replacement, IGF1, STAT3 activator and adrenal gland hormone without BFGF or rock inhibitor for producing corneal endothelial substitute cells from iPS cells and a method thereof” (KEIO UNIVERSITY, priority 2018, dated 2025).
# Assays:
# Type in all cases: cell-based, human
# [1] = test system: iPS cells (FF-I01s04 line); experiment: Differentiation induction inhibitory activity of ROCK inhibitor (immunostaining); settings: medium containing fasudil 50 μM
# Protocol: In the same manner as in Example 2 except that a medium containing fasudil (50 μM), which is a ROCK inhibitor, was used, the expression of ATP1A1 and ZO-1 was examined.
# [2] = test system: iPS cells (FF-I01s04); experiment: Effect of TGF-beta 1 added to the induction medium, immunostaining after passage; settings: TGF-beta 1 1 ng/mL added to induction medium
# Protocol: Using a medium (hereinafter referred to as CECSi cell induction (+T) medium) obtained by adding TGF-beta 1 (R&D System Inc., #240-GMP (1 ng/mL)) to the differentiation induction medium prepared in Example 1, the effect thereof was investigated.
# Induction of iPS cells (FF-I01s04) was started using CECSi cell induction medium or CECSi cell induction (+T) medium, and the first passage was performed on day 11 and the second passage was performed on […] from the start of induction. At the time of passage, the cells were collected using Accutase (Nacalai Tesque #12679-54), and suspended and seeded at a density of 1.5×10^5 cells/cm^2 in a 35 mm dish or 100 mm dish coated with iMatrix 511 at a concentration of 3 μg/ml, without changing the previous medium.
# At day 15 (after the first passage) and day 17 (after the second passage) from the start of induction, the expression state of N-cadherin and PITX2 was examined by immunostaining in the same manner as in Example 2.
# [3] = test system: iPS cells (FF-I01s04 line); experiment: Differentiation induction inhibitory activity of bFGF (quantitative PCR and immunostaining)
# Protocol: In the same manner as in Example 1 except that a medium containing bFGF (2 ng/mL) was used, the expression of each gene was quantified. As is clear from the results, when bFGF was added, an increase in ATPA1 or NR3C2 expression was not observed, and therefore an increase in ATP1A1 expression, which is important as the function of corneal endothelial cells, was not observed, either.
# The expression of ATP1A1 and ZO-1 in the cells cultured in a medium containing bFGF was examined in the same manner as in Example 2.
# [4] = immunostaining, medium containing bFGF
# [5] = quantitative PCR, medium containing bFGF 2 ng/mL, day 12
molecule,measurement,setting,value
O=S(=O)(c1cccc2cnccc12)N1CCCNCC1 [fasudil],expression of ATP1A1 in the cellular membrane,[1],low
same,expression of ZO-1 and cell shape,[1],Elongated cells poorly expressing ZO-1 appeared
"TGF-beta 1: isoform of transforming growth factor beta, protein added to the medium",endothelial morphology after passage,[2]; day 15 and day 17,could be maintained
same,expression of N-cadherin after passage,"[2]; day 15 and day 17, after first and second passage",maintained
bFGF: basic fibroblast growth factor,expression of ATP1A1,[3]; [4],remarkably low
same,expression of ZO-1 and cell shape,[3]; [4],Elongated cells poorly expressing ZO-1 appeared
same,increase in ATP1A1 expression,[3]; [5],not observed
same,increase in ATPA1 or NR3C2 expression,[3]; [5],not observed
